1 compound from US20240261274A1, “TREATMENT OF MYC-DRIVEN CANCERS WITH GSPT1 DEGRADERS” (MONTE ROSA THERAPEUTICS, INC., priority 2021, published 2024) can be followed below.

Common to all, as to format: cell-based
The subject of one test is N-Myc. Briefly: N-Myc total protein levels in NSCLC lines after Compound 345 (western blot). The note with it: NSCLC cancer lines; N-Myc not detectable in NCI-H2023. Here is the method: NCI-H1155 and NCI-H2023 were taken as representative of N-Myc high and low NSCLC. 12A: western blot analysis probing for GSPT1 and N-Myc following treatment with Compound 345 (as indicated). Tubulin was used as a loading control. N-Myc could not be detected by western blotting in the NCI-H2023 line. 12B: Single-sample gene set enrichment analysis (ssGSEA) results for a Myc target gene set at 6 hours (left) and 24 hours (right) after treatment. ssGSEA scores were normalized to DMSOs for each cell line and averaged for three replicates. Error bars denote+/−1 s.d. across replicates.

In a further test the test system is c-Myc. Briefly: c-Myc levels in multiple myeloma and lymphoma cell lines after Compound 345 (western blot). The note with it: 24 hr post treatment. The source says:
FIGS. 16A, 16B and 16C: Activity of Compound 345 in the c-Myc high multiple myeloma MM1S cell line. […] GAPDH was used as a loading control. […] Lenalidomide was used as a benchmark. 16C: Antiproliferative activity of Compound 345 (as indicated) following treatment with Compound 345 for 72 hr as assessed by Cell Titer Glo assay.
FIGS. 18A, 18B and 18C: Activity of Compound 345 in the c-Myc high WSU-DLCL2 lymphoma cell line. […] GAPDH was used as a loading control. 18B: Antiproliferative activity of Compound 345 (as indicated) following treatment with Compound 345 for 72 hr as assessed by Cell Titer Glo assay. […] Mice were dosed daily PO with vehicle or Compound 345 at 3, 10 mg/kg (as indicated). Tumor volumes were measured twice weekly. X-axis represents the number of days for treatment duration; y-axis represents mean tumor volume (in mm^3)±SEM. CHOP was used as a positive control for this model. Drug-free vehicle is represented by black circles; CHOP combination represented by light squares; Compound 345 3 mg/kg represented by triangles; Compound 345 10 mg/kg represented by dark squares.
FIGS. 19A, 19B, and 19C: Activity of Compound 345 in the c-Myc high DOHH-2 lymphoma cell line. […] GAPDH was used as a loading control. 19B: Antiproliferative activity of Compound 345 (as indicated) following treatment with Compound 345 for 72 hr as assessed by Cell Titer Glo assay. […] Mice were dosed daily PO with vehicle or Compound 345 at 3, 10 mg/kg (as indicated). Tumor volumes were measured twice weekly. X-axis represents the number of days for treatment duration; y-axis represents mean tumor volume (in mm^3)±SEM. CHOP was used as a positive control for this model.
Western blot analysis performed 24 hr post treatment initiation. GAPDH was used as a loading control. GSPT1 DC50 and Dmax as indicated.
Background: In western blotting, separated proteins are transferred to a membrane and probed.

The test system of a further test is Myc target genes. Briefly: RNAseq ssGSEA of Myc target genes in NCI-H1155 and NCI-H2023. The note with it: high N-Myc expressing cells, 0.1 μM and 1 μM. Here is the method: A High N-Myc expressing NSCLC cell lines ([…]) and a low N-Myc expressing NSCLC cell lines (NCI-H2023) were treated with Compound 345 in culture. Cells were treated with increasing concentrations of the compound (0.0; 0.03; 0.3; 3 μM), cells were withdrawn from the culture at time points of 0, 2, and 6 hours, lysates were prepared, SDS-PAGE and immunoblotting was performed, and transfer membranes were probed for GSPT1, N-Myc, and Tubulin as a loading control (N-Myc was not probed in the NCI-2023 experiment). […] For the same cell lines, RNAseq followed by single sample gene set enrichment analysis (ssGSEA) was performed at six hours and 24 hours after treatment with Compound 345. […]
Transcriptomics experiment in NCI-H1155 and NCI-H2023 NSCLC lines: NCI-H1155 and NCI-H2023 were typically seeded in a 6 well plate (0.5×10^6 NCI-H1155 cells/mL; 0.3×10^6 NCI-H2023 cells/mL; 2 ml/well) and incubated overnight. […] Total RNA yields and quality were measured using the DeNovix DS-11 Spectrophotometer. […] Library yields were measured using a QuBit 4 fluorometer ([…], Q33238) and sizes were measured using a Tapestation 4150 (Agilent, G2992AA) and screentape (Agilent, 5067-5562). […] The modulation of Myctarget gene expression upon treatment with MRT-2359 was analyzed in RNAseq profiles of both Myc-driven (NCI-Hi 155) and non-Mycdriven (NCI-H2023) cell lines. […]

With `O=C1CCC(N2Cc3ccc(COC(=O)Nc4cc(OC(F)(F)F)ccc4F)cc3C2=O)C(=O)N1` (stereo not drawn) [Compound 345, (2-(2,6-dioxopiperidin-3-yl)-3-oxoisoindolin-5-yl)methyl(2-fluoro-5-(trifluoromethoxy)phenyl)carbamate], the “N-Myc total protein levels, timecourse” value with N-Myc was “downregulation of N-Myc total protein levels”. Further, the c-Myc level result in the test with c-Myc (DOHH-2 lymphoma cell line), in the test with c-Myc (MM1S multiple myeloma cell line) and in the test with c-Myc (WSU-DLCL2 lymphoma cell line) was “downregulation of c-Myc” throughout. Further, the “ssGSEA score, Myc gene set” value with Myc target genes (24 hours) was “significant downregulation of the Myc gene set”; in the test on Myc target genes (six hours) it was “modest down regulation of the Myc gene set”.
